According to patent US4547521A, “16-Methoxy-16-methyl prostaglandin E1 derivatives, a process for preparing them and their use as gastroprotective agents” (Gruppo Lepetit S.p.A., priority 1979, dated 1985):

Key:
[1] = tested on: gastric acid secretion; assay: Inhibition of gastric acid secretion in dogs, histamine at fixed dose of 160 μg/kg/h, oral; format: in vivo, mongrel dogs; settings: histamine fixed dose 160 μg/kg/h
Protocol: The compounds of the present invention are also potent inhibitors of the gastric secretion when they are administered to laboratory animals by the oral route. […] The gastric antisecretory properties of these compounds when administered per os were evaluated on the basis of their effectiveness in inhibiting the hyperacidity induced by histamine in dogs. Histamine, which is a potent stimulator of the acidic gastric secretion (see Bertaccini et al., Eur. Journ. Pharmacol., 28, 360, 1974), was administered intravenously by continuous infusion during the experiments.
A group of five mongrel dogs was used in the experiment. […]
To evaluate the gastric antisecretory oral activity of the compounds of the invention, they were administered by gavage into the main stomach at a given dosage, expressed as μg/kg/h, dissolved in 1 ml of physiological solution, 60 minutes before the secreting agent. […]
The compounds of the present invention are potent inhibitors of also gastric hypersecretion also when administered intravenously. […] The pH of the fluid emerging from a cannula in the pylorus is continuously recorded by means of a glass-electrode connected to a direct reading pH-meter and thence to a recorder. […]

[2] = tested on: gastric hypersecretion induced by histamine; assay: Inhibition of histamine-induced gastric hypersecretion in anesthetized perfused-stomach rats (Ghosh and Schild), intravenous; format: in vivo; settings: i.v., histamine 1.5 mg/kg/h
Protocol: The compounds of the present invention are potent inhibitors of also gastric hypersecretion also when administered intravenously. This has been confirmed by evaluating the effects, on gastric hypersecretion induced by histamine, produced by a single intravenous administration to anesthetized rats of the compounds of the present invention. The experiments were carried out essentially according to the methodology described by Ghosh and Schild in Brit. J. Pharm. (1958), 13, 54-61. According to this technique the rat is anesthetized with urethane and its stomach is perfused with a dilute sodium hydroxide solution (N/4000 NaOH at a rate of about 1 ml/min) by way of the oesophagus. The pH of the fluid emerging from a cannula in the pylorus is continuously recorded by means of a glass-electrode connected to a direct reading pH-meter and thence to a recorder. In passing through the stomach, the perfusate collects sufficient buffer to act as an approximately linear buffer system over the relevant range, so that the change in pH becomes a measure of acid secretion.
When the N/4000 NaOH solution is collected after having passed through the unstimulated stomach it gives an initial value of about 6-6.5 (pHunstimulated stomach). A secretory stimulant, histamine in the present case, is then administered intravenously by continuous infusion at a dose of 1.5 mg/kg/h. After a few minutes the pH begins to fall and after about 10 to 20 minutes the secretory effect reaches its maximum and the pH its lowest value (pHhistamine stimulated stomach) which, owing to the continuous infusion of histamine, remains constant. The compounds to be tested are then administered intravenously and the pH is continuously recorded. By considering the highest pH value recorded, which evidences the maximum antisecretory effect reached with the test compound (pHM.A.E.) and using the following equation [formula] the percent inhibition of gastric acid secretion may be easily calculated.

[3] = tested on: gastric ulcers caused by indomethacin; assay: Cytoprotective activity: inhibition of gastric ulcers caused by indomethacin in rats, oral; format: in vivo; settings: indomethacin i.p.
Protocol: More particularly, the cytoprotective activity of the compounds of the present invention was evaluated on the basis of their effectiveness in inhibiting the formation and reducing the severity of gastric ulcers in rats caused by the administration of a high dose of 1-(p-chlorobenzoyl)-5-methoxy-2-methyl-3-indolyl-acetic acid (indomethacin). The cytoprotective activity occurred at oral doses which are by far lower than those which cause inhibition of the gastric acid secretion. In these experiments the rats were deprived of food the day before the beginning of the experiments but water was given ad libitum. The compounds to be tested were administered by the oral route as a suspension in 0.5% aqueous methocel solution (5 animals/dose), while indomethacin was administered intraperitoneally at […] in the same vehicle. Another group of rats (controls) was administered only with the ulcerogenic agent. The cytoprotective properties of the compounds of this invention were then expressed as "percent inhibition of the ulcers with respect to controls", which can be easily calculated by the following ratio: [formula] wherein A.U.D.(controls) is the average ulceration degree of the stomachs of the controls and A.U.D.(treated animals) is the average ulceration degree of the stomachs of the animals which received both indomethacin and the compound to be tested.
The A.U.D.s are calculated according to the method described by Thuillier et al. Chim. Ther., 3, 53, 1968, by examining the stomachs of the laboratory animals for possible ulcerations and assigning a score from 0 to 4 which depends on the number and the severity of the observed ulcerations: 0 indicates absence of any ulceration on the gastric wall; 4 indicates perforating ulcerations. A single ulceration degree (S.U.D.) is then calculated for each single stomach. The sum of the S.U.D.s divided by the number of the animals affords the A.U.D. of the stomachs of each group of animals.

In the case of `CCCCC(C)(OC)C(O)/C=C/[C@H]1[C@H](O)CC(=O)[C@@H]1CCCCCCC(=O)OC` (single isomer, unassigned) [Example 1F, 11α,15-dihydroxy-16-methoxy-16-methyl-9-oxo-prosta-13(E)-ene-1-oic acid methyl ester], the “block of gastric acid secretion” value [1] is reported as “about 60%”, the “% Inhibition of the acid gastric secretion” value (“% Inhibition” below) ([2]; 2.5 μg/kg) is reported as 15% and the “% Inhibition” value ([2]; 10 μg/kg) is reported as 63%. The “% Inhibition” value ([2]; 20 μg/kg) was 90%, the “% Inhibition” value ([2]; 50 μg/kg) was 100% and the “percent inhibition of the ulcers with respect to controls” value ([3]; 3 μg/kg (lowest dose tested)) was “about 43%”. For the same compound, the ED50 ([3]; Rattus norvegicus, calculated by extrapolation, read-out: ED50 (dose which provokes an inhibition of the ulcers with respect to controls of 50%)) was 6 µg/kg and the “cytoprotective activity (in words)” value [3] was “very active even at very low doses”.
